# Measured values taken from US6939860B2, “Composition and method for treatment of neoplastic diseases associated with elevated matrix metalloproteinase activities using catechin compounds” (priority 2002, dated 2005).
# Assays:
# [1] = test system: MMP9; experiment: Zymogram of culture media from Matrigel invasion assay, MMP9; type: cell-based, Human; details: media of MDA MB 231 Matrigel invasion assay
# Procedure: (§1) The media (25-30 μl) from Matrigel Invasion studies was applied to Novex zymogram gels (Invitrogen). The gel plates were developed and stained as recommended by the manufacturer. The matrix-metalloproteinases (MMPs) bands were identified on the basis of their known molecular weights.
# (§2) The media from various treatments in the Matrigel Invasion assay (Example 4) were applied to Novex Zymogram Gel (Invitrogen). The plates were developed and stained as recommended by the manufacturer. The matrix metalloproteinases (MMPs) bands were identified on the basis of their known molecular weights (FIG. 6).
# [2] = test system: Human Breast Cancer Cells MDA-MB 231; experiment: Cell proliferation study (MTT stain), breast cancer cells; details: MDA-MB 231, 4 days
# Procedure: To study the effects of catechins and dietary composition on cell proliferation of human cancer cells, various human cancer cell lines were cultured in 24 well plates using the culture conditions specified by ATCC (supplier of cell lines). The cells were generally incubated for 3 to 4 days (before coalescence was reached). The total number of cells in a culture well was determined by staining the cells with vital stain (MTT) followed by the determination of OD of the stain solution. MTT only stain the dead cells and the amount of stain uptake correlates with the number of dead cells in the culture. Percent inhibition was calculated by comparing the OD of the treatment groups with the OD of the control groups. In these studies, 5×10^4 breast cancer cells (MDAMB 231) were seeded in each of the wells of 24-well plate. […] Plates were incubated in ambient air (without supplemental CO2) for a period of 4 days. At the end of the period, the culture media were withdrawn and the cells in each well were stained with MTT. Excess MTT stain was washed off. The MTT stained cancer cells were dissolved in 1 ml DMSO solution. The optical density (OD) of the solution was determined for each well. The OD for the well was directly proportional to the number of dead cells. The OD of the MTT stained cancer cells that were previously cultured in the absence of EGCGT was used as a reference and was considered as 100. Percent inhibition was calculated by using the formula: % Inhibition=(OD of Reference−OD of the Test Treatment)/OD of Reference×100%.
# [3] = test system: Human breast cancer cells (MDA MB 231); experiment: Matrigel invasion assay, breast cancer cells; type: cell-based; details: EGCG 50 μg/ml alone, MDA MB 231, 18 hours
# Procedure: The Matrigel Invasion studies were conducted using Matrigel (Becton Dickinson) inserts in compatible 24 well plates. This assay is a reliable assay for evaluating cancer metastasis.
# Human fibroblast cells were seeded and grown in the 24-well plates using culture media containing ˜10% serum. When the fibroblasts reached coalescence, the culture media with serum was withdrawn and replaced with fresh media without serum. A combination of catechin compounds plus dietary composition were added to the media without serum and human cancer cells were seeded on the upper surface of the Matrigel inserts.
# After 18 hours, the media were withdrawn. Some media were saved for zymogram studies. The cells on the upper surface of the inserts were gently scrubbed away with cotton swab. The cells that had penetrated the Matrigel membrane and had migrated into the lower surface of the Matrigel were stained with Quick Stain and were counted under a microscope.
# The general procedure for Matrigel Invasion Assay has been described above. In this assay, human breast cancer cells (5×10^4) were seeded on each insert. Various supplements were added to Leibovitz's media. The plates were incubated in an incubator in ambient air without supplemental CO2.
# [4] = test system: MMP2; experiment: Zymogram of culture media from Matrigel invasion assay, MMP2; type: cell-based, Human
# Procedure: as §1, §2
smiles,measurement,setting,value
"O=C(O[C@@H]1Cc2c(O)cc(O)cc2O[C@@H]1c1cc(O)c(O)c(O)c1)c1cc(O)c(O)c(O)c1 [EGCG, (−)-epigallocatechin-3-gallate]",production of MMP9 (zymogram),[1]; EGCG 20 ug/ml,completely inhibited
same,activity of MMP9 (zymogram),[1]; EGCG 50 μg/ml,completely inhibited
same,activity of MMP9 (zymogram),[1]; EGCG 100 ug/ml,completely inhibited
same,inhibition of cell proliferation,[2]; EGCG 10 ug/ml,did not inhibit
same,inhibition of cell proliferation,[2]; EGCG 20 μg/ml alone,3%
same,inhibition of cell proliferation,[2]; EGCG 50 μg/ml,34%
same,inhibition of cell proliferation,[2]; EGCG 100 μg/ml,66%
same,inhibition of cell proliferation,[2]; EGCG 200 μg/ml,70%
same,inhibition of Matrigel invasion,[3],~100%
same,production of MMP2 (zymogram),"[4]; EGCG 20 ug/ml, media of MDA MB 231 Matrigel invasion assay",reduced
same,activity of MMP2 (zymogram),"[4]; EGCG 50 μg/ml, media of MDA MB 231 Matrigel invasion assay",completely inhibited
same,activity of MMP2 (zymogram),"[4]; EGCG 100 ug/ml, media of MDA MB 231 Matrigel invasion assay",completely inhibited
same,activity of MMP2 secreted by breast cancer cells (zymogram),"[4]; FIG. 6 legend, concentration not given",decreases
